Test results reported in ChEMBL document CHEMBL1139857, “Target-based approach to inhibitors of histone arginine methyltransferases” (J Med Chem, 2007).
Activity calls are given as the source filed them. The rule behind the calls is not given here.

What was measured:
[1] = target: RmtA (Emericella nidulans) (UniProt Q5VLE3); experiment: Inhibition of Aspergillus nidulans RmtA at 2 uM by TRF assay
[2] = target: RmtA (Emericella nidulans) (UniProt Q5VLE3); experiment: Inhibition of Aspergillus nidulans RmtA at 10 uM by TRF assay
[3] = target: T1, Estrogen receptor (Homo sapiens) (UniProt P03372); experiment: Inhibition of estradiol-mediated ERalpha activation in MCF-7-2a cells at 150 uM; format: cell-based; parameters: scale not given: the % may be the effect or the level left
T1 sequence (whole entry): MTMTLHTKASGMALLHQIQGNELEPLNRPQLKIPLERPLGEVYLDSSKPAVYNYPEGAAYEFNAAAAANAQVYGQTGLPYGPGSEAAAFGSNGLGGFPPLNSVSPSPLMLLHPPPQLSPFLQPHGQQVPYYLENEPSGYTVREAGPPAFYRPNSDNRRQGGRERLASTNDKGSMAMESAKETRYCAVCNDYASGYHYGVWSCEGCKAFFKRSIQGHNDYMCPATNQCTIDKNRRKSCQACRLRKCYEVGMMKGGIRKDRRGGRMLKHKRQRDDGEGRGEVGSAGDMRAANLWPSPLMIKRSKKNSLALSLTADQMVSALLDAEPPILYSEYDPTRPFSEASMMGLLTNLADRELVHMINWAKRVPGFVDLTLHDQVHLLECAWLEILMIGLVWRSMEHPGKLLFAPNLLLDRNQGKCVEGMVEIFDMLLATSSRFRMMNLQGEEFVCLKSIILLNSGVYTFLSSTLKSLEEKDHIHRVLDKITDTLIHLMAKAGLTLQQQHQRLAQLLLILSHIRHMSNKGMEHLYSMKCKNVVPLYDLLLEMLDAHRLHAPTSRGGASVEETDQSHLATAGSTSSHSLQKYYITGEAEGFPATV

RmtA = RmtA (Emericella nidulans, UniProt Q5VLE3); experiment: Inhibition of Aspergillus nidulans RmtA by TRF assay
Chain of RmtA (Q5VLE3 whole entry): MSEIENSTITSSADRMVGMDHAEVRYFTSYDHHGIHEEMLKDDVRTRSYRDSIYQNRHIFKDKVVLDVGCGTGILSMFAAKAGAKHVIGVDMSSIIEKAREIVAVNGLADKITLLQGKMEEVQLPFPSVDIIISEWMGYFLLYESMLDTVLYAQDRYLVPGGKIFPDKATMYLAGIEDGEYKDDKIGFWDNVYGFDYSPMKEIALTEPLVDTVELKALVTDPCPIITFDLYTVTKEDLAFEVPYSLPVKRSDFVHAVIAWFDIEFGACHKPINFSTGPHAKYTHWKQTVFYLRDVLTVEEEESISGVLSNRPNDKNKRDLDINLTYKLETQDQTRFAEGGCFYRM

[4] = target: T2, Androgen receptor (Homo sapiens) (UniProt P10275); experiment: Inhibition of androgen receptor activation in MCF-7-2a cells by reporter gene assay; format: cell-based
T2 sequence (whole entry): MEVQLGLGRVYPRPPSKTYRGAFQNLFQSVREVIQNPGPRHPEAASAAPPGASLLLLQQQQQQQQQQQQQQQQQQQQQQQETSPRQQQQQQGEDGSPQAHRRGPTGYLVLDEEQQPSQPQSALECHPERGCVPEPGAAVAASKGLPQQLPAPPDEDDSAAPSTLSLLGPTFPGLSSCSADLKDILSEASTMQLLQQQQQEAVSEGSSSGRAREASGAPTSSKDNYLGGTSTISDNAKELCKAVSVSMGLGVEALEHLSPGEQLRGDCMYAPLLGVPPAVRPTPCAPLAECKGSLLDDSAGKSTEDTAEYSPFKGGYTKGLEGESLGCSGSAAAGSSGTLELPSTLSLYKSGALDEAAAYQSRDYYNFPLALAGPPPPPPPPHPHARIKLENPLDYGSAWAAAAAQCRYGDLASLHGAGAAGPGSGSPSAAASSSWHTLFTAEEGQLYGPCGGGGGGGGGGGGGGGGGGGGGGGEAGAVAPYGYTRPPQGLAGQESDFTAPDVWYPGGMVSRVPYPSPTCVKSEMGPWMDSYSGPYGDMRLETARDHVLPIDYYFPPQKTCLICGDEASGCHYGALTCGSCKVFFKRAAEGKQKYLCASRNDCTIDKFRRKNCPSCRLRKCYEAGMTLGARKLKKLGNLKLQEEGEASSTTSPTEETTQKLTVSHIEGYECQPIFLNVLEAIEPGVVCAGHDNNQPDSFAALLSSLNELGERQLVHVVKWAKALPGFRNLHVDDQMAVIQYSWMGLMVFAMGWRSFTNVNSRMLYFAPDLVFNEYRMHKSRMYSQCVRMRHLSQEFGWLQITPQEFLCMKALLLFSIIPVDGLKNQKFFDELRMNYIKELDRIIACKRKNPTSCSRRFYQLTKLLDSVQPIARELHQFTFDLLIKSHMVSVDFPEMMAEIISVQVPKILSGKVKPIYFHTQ

[5] = target: T1, Estrogen receptor (Homo sapiens); experiment: Inhibition of ERalpha activation in MCF-7-2a cells by reporter gene assay; format: cell-based

Chain of RmtA (Emericella nidulans) (Q5VLE3 as listed by the source): as the sequence (Q5VLE3 whole entry) above

Row | SMILES | inhibition [1] | inhibition [2] | IC50 (RmtA) | further results
1 | N=C(N)c1ccc(/C=C/c2ccc(C(=N)N)cc2)cc1 [STILBAMIDINE] |  |  | 29.9 µM | Activity [3]: 75%
2 | Nc1ccc(S(=O)(=O)c2ccc(NCN3C(=O)NC(=O)C(=O)C3=O)cc2)cc1 [ALLANTODAPSONE] |  |  | 8.3 µM | 
3 | N=C(N)SCc1cc(Cl)cc(Cl)c1O | 18.3% | 83.9% |  | 
4 | O=C(Nc1ccc2c(O)cc(S(=O)(=O)O)cc2c1)Nc1ccc2c(O)cc(S(=O)(=O)O)cc2c1 |  |  | 33.8 µM | Activity [4]: Active; Activity [3]: Active; Activity [5]: Active

More lines, main results first:

Row | inhibition [1] | inhibition [2] | SMILES | IC50 (RmtA) | further results
5 | 15.6% | 75.1% | N=C(N)Nc1nc2cc([N+](=O)[O-])ccc2[nH]1 |  | 
6 | 26.1% | 77% | Cc1ccc(CNc2ncnc3[nH]cnc23)cc1 |  | 
7 | 34.9% | 64.7% | c1nc(NCCCc2c[nH]cn2)c2nc[nH]c2n1 |  | 
8 |  | 68.3% | CC(C)(CN)SCc1ccccc1 |  | Activity [1]: inactive
